{"source": "ChEMBL document CHEMBL5247639", "about": "“Fused-ring α-pyrones from intramolecular C-H activation and their lipids-lowering activity associated with LXR-IDOL-LDLR axis regulation” (2022)", "key": {"Syrian golden hamster [1]": {"tested_on": "Syrian golden hamster", "assay": "Hypolipidemic activity in high fat diet induced Syrian golden hamster assessed as decrease in low-density lipoprotein cholesterol level at 30 mg/kg,ip administered once daily for 21 days by automatic biochemical analyzer", "assay_type": "functional, organism-based", "details": "Mesocricetus auratus, time 21.0 day"}, "HepG2 [2]": {"tested_on": "HepG2", "assay": "Downregulation of LXRalpha protein level in nucleus of human HepG2 at 5 uM incubated for 24 hrs by Western blot analysis", "assay_type": "functional, cell-based"}, "HepG2 [3]": {"tested_on": "HepG2", "assay": "Induction of LDL uptake in human HepG2 cells at 5 uM incubated for 24 hrs by microplate reader analysis", "assay_type": "functional, cell-based"}, "[4]": {"assay": "Downregulation of IDOL protein level in human HepG2 cells at 5 uM incubated for 24 hrs by Western blot analysis relative to control", "assay_type": "functional"}, "Syrian golden hamster [5]": {"tested_on": "Syrian golden hamster", "assay": "Hypolipidemic activity in high fat diet induced Syrian golden hamster assessed as decrease in triglyceride level at 30 mg/kg,ip administered once daily for 21 days by automatic biochemical analyzer", "assay_type": "functional, organism-based", "details": "Mesocricetus auratus, time 21.0 day"}, "HepG2 [6]": {"tested_on": "HepG2", "assay": "Downregulation of IDOL mRNA level in human HepG2 cells at 5 uM incubated for 24 hrs by Q-PCR analysis", "assay_type": "functional, cell-based"}, "Syrian golden hamster [7]": {"tested_on": "Syrian golden hamster", "assay": "Hypolipidemic activity in high fat diet induced Syrian golden hamster assessed as decrease in total cholesterol level at 30 mg/kg,ip administered once daily for 21 days by automatic biochemical analyzer", "assay_type": "functional, organism-based", "details": "Mesocricetus auratus, time 21.0 day"}, "[8]": {"assay": "Upregulation of LDLR protein level in human HepG2 cells at 5 uM incubated for 24 hrs by Western blot analysis relative to control", "assay_type": "functional"}, "HepG2 [9]": {"tested_on": "HepG2", "assay": "Inhibition of LXR activity in human HepG2 cells assessed as downregulation of SREBP-1c level at 5 uM incubated for 24 hrs by Q-PCR analysis", "assay_type": "cell-based"}, "HepG2 [10]": {"tested_on": "HepG2", "assay": "Inhibition of LXR activity in human HepG2 cells assessed as downregulation of ABCA1 level at 5 uM incubated for 24 hrs by Q-PCR analysis", "assay_type": "cell-based"}, "HepG2 [11]": {"tested_on": "HepG2", "assay": "Upregulation of LDLR protein level in human HepG2 cells at 5 uM incubated for 24 hrs by Western blot analysis", "assay_type": "functional, cell-based"}}, "note": "Activity calls are given as the source filed them. No cut-off for these calls is given here."}
{"smiles": "O=c1oc(-c2ccccc2)c2c3c1c1ccccc1n3CCC2", "values": [{"measurement": "Activity", "setting": "Syrian golden hamster [1]", "result": "Active"}, {"measurement": "Activity", "setting": "HepG2 [2]", "result": "Active"}, {"measurement": "Activity", "setting": "HepG2 [3]", "result": "Active"}, {"measurement": "Activity", "setting": "[4]", "result": 28, "unit": "%"}, {"measurement": "Activity", "setting": "Syrian golden hamster [5]", "result": "Active"}, {"measurement": "Activity", "setting": "HepG2 [6]", "result": "Active"}, {"measurement": "Activity", "setting": "Syrian golden hamster [7]", "result": "Active"}, {"measurement": "Activity", "setting": "[8]", "result": 160, "unit": "%"}, {"measurement": "inhibition", "setting": "HepG2 [9]", "result": "Active"}, {"measurement": "inhibition", "setting": "HepG2 [10]", "result": "Active"}]}
{"smiles": "O=c1oc(-c2cccs2)c2c3c1c1ccccc1n3CCC2", "values": [{"measurement": "Activity", "setting": "HepG2 [3]", "result": "Active"}]}
{"smiles": "O=c1cc2c(c(-c3cc4ccccc4o3)o1)CCCC2", "values": [{"measurement": "Activity", "setting": "HepG2 [3]", "result": "Active"}]}
{"smiles": "O=c1cc2c(c(-c3cc4ccccc4s3)o1)CCCC2", "values": [{"measurement": "Activity", "setting": "HepG2 [3]", "result": "Active"}]}
{"smiles": "O=c1cc2c(c(-c3ccc(-c4cccs4)s3)o1)CCCC2", "values": [{"measurement": "Activity", "setting": "HepG2 [3]", "result": "Active"}]}
{"smiles": "O=c1cc2c(c(-c3ccc(-c4ccccc4)s3)o1)CCCC2", "values": [{"measurement": "Activity", "setting": "HepG2 [3]", "result": "Active"}]}
{"smiles": "O=c1cc2c(c(-c3cccs3)o1)CCCC2", "values": [{"measurement": "Activity", "setting": "HepG2 [2]", "result": "Active"}, {"measurement": "Activity", "setting": "HepG2 [3]", "result": "Active"}, {"measurement": "Activity", "setting": "[4]", "result": 42, "unit": "%"}, {"measurement": "Activity", "setting": "HepG2 [6]", "result": "Active"}, {"measurement": "Activity", "setting": "[8]", "result": 238, "unit": "%"}, {"measurement": "inhibition", "setting": "HepG2 [9]", "result": "Active"}, {"measurement": "inhibition", "setting": "HepG2 [10]", "result": "Active"}]}
{"smiles": "COc1ccccc1-c1oc(=O)cc2c1CCCC2", "values": [{"measurement": "Activity", "setting": "HepG2 [3]", "result": "Active"}, {"measurement": "Activity", "setting": "HepG2 [11]", "result": "inactive"}]}
